# From patent US20080261891A1, “COMPOSITIONS AND METHODS FOR USING SYRINGOPEPTIN 25A AND RHAMNOLIPIDS” (Utah State University, priority 2007, published 2008)
# Read-outs that look alike come from different tables or passages of the source. Where a SMILES comes first, the peptide text is derived from it. Bridges are numbered along the chain shown (N, C = ends). [ ]: non-standard residue; d: D form. The star is where a group is joined. ξ: configuration not given here. Decanoyl(3ξ-OH) = CCCCCCCC(O)CC(=O)*; Dab = NCC[CH](N)C(=O)O; Dhb = C/C=C(\N)C(=O)O
# Tested on: selected human cancer cell lines
# 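Further: MTT dye viability readout in semi-confluent cancer cells, compound exposure 1-24 hours, MTT then 4 hours at 37 °C, compared against untreated negative control wells.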
smiles,measurement,setting,value
"C/C=C(\NC(=O)C(C)NC(=O)C(C)NC(=O)C(CC(C)C)NC(=O)C(NC(=O)C(C)NC(=O)C(C)NC(=O)C(NC(=O)C1CCCN1C(=O)/C(=C/C)NC(=O)CC(O)CCCCCCC)C(C)C)C(C)C)C(=O)NC(C(=O)N/C(=C\C)C(=O)NC(C)C(=O)NC(C(=O)NC(C)C(=O)NC(C)C(=O)N/C(=C\C)C(=O)NC1C(=O)NC(CO)C(=O)NC(C)C(=O)NC(C(C)C)C(=O)NC(C)C(=O)NC(CCN)C(=O)NC(CCN)C(=O)NC(Cc2ccc(O)cc2)C(=O)OC1C)C(C)C)C(C)C (centres unmarked) [SP 25A, syringopeptin 25A] ({Decanoyl(3ξ-OH)}-[Dhb]PVAAVLAA[Dhb]V[Dhb]AVAA[Dhb]TSAVA[Dab][Dab]Y; ester 18-C; configuration not given here)",IC50,Bone (U2OS),101.47 µg/mL
same,% cytotoxicity,"Bone (U2OS), 1.00 ug/ml",−10.06%
same,% cytotoxicity,"Bone (U2OS), 2.50 ug/ml",−3.64%
same,% cytotoxicity,"Bone (U2OS), 5.00 ug/ml",1.69%
same,% cytotoxicity,"Bone (U2OS), 10.00 ug/ml",4.93%
same,IC50,Breast (MCF-7),30.27 µg/mL
same,% cytotoxicity,"Breast (MCF-7), 1.00 ug/ml",−20.40%
same,% cytotoxicity,"Breast (MCF-7), 2.50 ug/ml",−1.12%
same,% cytotoxicity,"Breast (MCF-7), 5.00 ug/ml",1.76%
same,% cytotoxicity,"Breast (MCF-7), 10.00 ug/ml",16.52%
same,IC50,Breast (MDA-MB231),10.14 µg/mL
same,% cytotoxicity,"Breast (MDA-MB231), 1.00 ug/ml",−12.40%
same,% cytotoxicity,"Breast (MDA-MB231), 2.50 ug/ml",9.23%
same,% cytotoxicity,"Breast (MDA-MB231), 5.00 ug/ml",21.98%
same,% cytotoxicity,"Breast (MDA-MB231), 10.00 ug/ml",49.30%
same,IC50,Breast (MDA-MB435),6.25 µg/mL
same,% cytotoxicity,"Breast (MDA-MB435), 1.00 ug/ml",20.78%
same,% cytotoxicity,"Breast (MDA-MB435), 2.50 ug/ml",−5.22%
same,% cytotoxicity,"Breast (MDA-MB435), 5.00 ug/ml",18.84%
same,% cytotoxicity,"Breast (MDA-MB435), 10.00 ug/ml",79.98%
same,IC50,Cervical (HeLa),25.50 µg/mL
same,% cytotoxicity,"Cervical (HeLa), 1.00 ug/ml",1.68%
same,% cytotoxicity,"Cervical (HeLa), 2.50 ug/ml",3.50%
same,% cytotoxicity,"Cervical (HeLa), 5.00 ug/ml",1.08%
same,% cytotoxicity,"Cervical (HeLa), 10.00 ug/ml",19.61%
same,IC50,Colon (HT29),29.72 µg/mL
same,% cytotoxicity,"Colon (HT29), 1.00 ug/ml",8.89%
same,% cytotoxicity,"Colon (HT29), 2.50 ug/ml",23.85%
same,% cytotoxicity,"Colon (HT29), 5.00 ug/ml",24.59%
same,% cytotoxicity,"Colon (HT29), 10.00 ug/ml",16.83%
same,IC50,Lung (A549),11.41 µg/mL
same,% cytotoxicity,"Lung (A549), 1.00 ug/ml",15.66%
same,% cytotoxicity,"Lung (A549), 2.50 ug/ml",13.51%
same,% cytotoxicity,"Lung (A549), 5.00 ug/ml",41.14%
same,% cytotoxicity,"Lung (A549), 10.00 ug/ml",43.82%
same,IC50,Ovarian (OVCAR3),19.75 µg/mL
same,% cytotoxicity,"Ovarian (OVCAR3), 1.00 ug/ml",6.42%
same,% cytotoxicity,"Ovarian (OVCAR3), 2.50 ug/ml",16.30%
same,% cytotoxicity,"Ovarian (OVCAR3), 5.00 ug/ml",16.41%
same,% cytotoxicity,"Ovarian (OVCAR3), 10.00 ug/ml",25.31%
same,IC50,Prostate (DU145),6.56 µg/mL
same,% cytotoxicity,"Prostate (DU145), 1.00 ug/ml",26.92%
same,% cytotoxicity,"Prostate (DU145), 2.50 ug/ml",23.60%
same,% cytotoxicity,"Prostate (DU145), 5.00 ug/ml",45.22%
same,% cytotoxicity,"Prostate (DU145), 10.00 ug/ml",76.25%
same,IC50,Stomach (AGS),18.58 µg/mL
same,% cytotoxicity,"Stomach (AGS), 1.00 ug/ml",4.00%
same,% cytotoxicity,"Stomach (AGS), 2.50 ug/ml",13.87%
same,% cytotoxicity,"Stomach (AGS), 5.00 ug/ml",26.88%
same,% cytotoxicity,"Stomach (AGS), 10.00 ug/ml",26.90%
